The subject of experiment [1] is isolated rabbit thoracic aorta preparations. Kind of experiment: Vascular tone: relaxation of noradrenaline-precontracted isolated aortic rings. The following applies: Oryctolagus cuniculus; rabbit thoracic aorta rings contracted with noradrenaline 1 μM, functional endothelium; ± sem; read-out: IC50 (concentration giving 50% reversal of NA contraction). As to the method: The ability of statin nitroderivatives to induce vasorelaxation in comparison to native statins, was tested in vitro in isolated rabbit thoracic aorta preparations (Wanstall J. C. et al., Br. J. Pharmacol., 134:463-472, 2001). Male New Zealand rabbits were anaesthetized with thiopental-Na (50 mg/kg, iv), sacrificed by exsanguinations and then the thorax was opened and the aorta dissected. Single ring preparations (4 mm in length) of thoracic aorta were set up in physiological salt solution (PSS) at 37° C. in small organ chambers (5 ml). The composition of PSS was (mM): NaCl 130, NaHCO3 14.9, KH2PO4 1.2, MgSO4 1.2, HEPES 10, CaCl2, ascorbic acid […] and glucose 1.1 (95% O2/5% CO2; pH 7.4). Each ring was mounted under 2 g passive tension in 5 ml organ bath. Isometric tension was recorded with a Grass transducer (Grass FT03) attached to a BIOPAC MP150 System. Preparations were allowed to equilibrate for 1 h, then contracted submaximally with noradrenaline (NA, 1 μM) and, when the contraction was stable, acetylcholine (ACh, 10 μM) was added. A relaxant response to ACh indicated the presence of a functional endothelium. When a stable precontraction was reached, a cumulative concentration-response curve to either of the vasorelaxant agents was obtained in the presence of a functional endothelium. Time intervals between different concentrations were based on the time needed to reach a full response. Moreover, the effect of the soluble guanylyl cyclase inhibitor ODQ (1-H-(1,2,4)-oxadiazol(4,3-a)quinoxalin-1-one) on the dilator responses elicited by the compounds was examined preincubating the aortic rings with ODQ (10 μM) for 20 min. Responses to vasorelaxing agents were measured from the plateau of NA contraction. The IC50 (concentration giving 50% reversal of NA contraction) was interpolated from the plots of relaxant-response vs log molar concentration of tested compound.
During the experimental period, the plateau obtained with NA was stable without significant spontaneous loss of contraction in the aortic rings.
As shown in the following Table 1, the nitroderivatives of the invention were able to induce relaxation in a concentration-dependent manner. Furthermore, in experiments performed in presence of ODQ (10 μM), the vasorelaxant responses to all the tested drugs were inhibited.
IC50 is the concentration which inhibits 50% of the response. Effects of Nitrostatin Derivatives on Inflammatory Pathways In Vitro

The test system of a further experiment is COX2. Put plainly: Western blot of COX2 protein in LPS-stimulated RAW264.7 cells. Format: cell-based. Here is the method:
(§1) The experiments were performed using RAW264.7 monocyte macrophage cell line. […] At the end of the incubation, the cells were harvested in lysis buffer and the protein content was measured. Western Blot of inducible iNOS and COX2 proteins (representatives of an ongoing inflammatory process) was performed. The obtained results reported in Table 2 are expressed as % reduction of optical density of each treatment vs. LPS-treated samples.

The test system of a further experiment is iNOS. Kind of experiment: Western blot of iNOS protein in LPS-stimulated RAW264.7 cells. It counts as cell-based. As to the method: as §1
For orientation: In western blotting, separated proteins are transferred to a membrane and probed.

The subject of a further experiment is human platelets. Kind of experiment: U46619-induced platelet aggregation in vitro. Format: cell-based. As to the method:
Platelets are prominent components of the thrombi.
Compounds were incubated at 37° C. for 2 min before adding U46619, an aggregating agent, TxA2 analog. Aggregation was followed for 5 min and the maximal amplitude (cm) was measured. DMSO (0.05%) was used as vehicle. Compounds were tested at concentrations ranging from 50 to 200 μM.

Experiment [2] has as its system U46619-induced pulmonary thromboembolism. Put plainly: Protection from U46619-induced pulmonary thromboembolism. Format: in vivo, CD-1 mice. The settings on record: mice, U46619 0.2 mg/kg iv. Here is the method:
1 (equimolar doses) or vehicle. 1-3 hrs later the animals were injected into a tail vein with U46619 (0.2 mg/kg), a stable TxA2 analog. As previously described (Momi et al., Eur. J. Pharmacol. 397:177-185, 2000), this dose of the agonist caused 80 to 90% mortality within 3 min. in the control group. In each experimental session at least six animals per treatment group were tested; control groups were run at the beginning and at the end of every experimental session. Protection against agonist-induced thromboembolism was expressed as (1-Tdrug/Tsaline)×100, were Tdrug is the mortality rate in drug-treated mice, and Tsaline is the number of non surviving control animals which received […] only.
The results were expressed as percentage of protection from U46619-induced pulmonary thromboembolism as compared to the control group.

In a further experiment the test system is murine hindlimb ischemia. Kind of experiment: Murine hindlimb ischemia model (capillary density, clinical outcome). It counts as in vivo, CD1 male mice. As to the method:
Angiogenesis is a primary response to local tissue hypoxia and is likely involved in the restoration of blood flow in ischemic diseases such as acute coronary syndromes and occlusive peripheral vascular disease. […] After 3 days, mice were anaesthetized and left hindlimb ischemia was induced by electro-coagulation of the upper part of femoral artery. Treatment was continued for the following 2 weeks after surgery. Systolic blood pressure was measured by tail cuff technique at 7 and 14 days. The clinical outcome at 14 days was determined by counting the number of necrotic or lost nails in the ischemic foot as well as the number of auto-amputation events. At 14 days from ischemia induction, hindlimbs of anaesthetized mice were perfusion-fixed, both adductors were coded and histologically processed. Capillary and arteriolar densities (ncap/mm^2 and nart/mm^2) were determined.

A further experiment relates to leukocyte adhesion. Put plainly: Ex vivo leukocyte adhesion to thrombin-stimulated arterial segments of dosed ApoE knockout mice. Format: in vivo. The settings on record: ApoE K/O mice, pravastatin 40 mg/kg po or equimolar dose daily for 5 days. Here is the method: The interaction between leukocytes and the vascular endothelium is a crucial inflammatory step in the atherogenic process.
Leukocytes were isolated from spleen, centrifuged, RBCs lysed with water. Arterial segments prepared—aortic & thoracic regions opened longitudinally and pinned out luminal side up. Radiolabelled leukocytes (^51Cr-leukocytes) are incubated with thrombin-stimulated (10 UmL−1 for 10 min.) segments for 30 min. Segments are washed with medium and adhesion measured by gamma counter.

The test system of a further experiment is Tissue factor (TF). Kind of experiment: Tissue factor expression in LPS-stimulated blood mononuclear cells. It counts as cell-based. The following applies: 50 μM; human MNC, LPS 1 μg/ml, 3 h; mean ± SEM. As to the method: Tissue factor (TF) is a major regulator of homeostasis and thrombosis. […] MNC were obtained from fresh blood by density gradient (Ficoll-Hypaque) centrifugation and resuspended in serum-free RPMI medium at the concentration of 2−3×10^6/ml. […] After incubation for 3 h at 37° C., TF expression in MNC was assessed by 1) functional assay (Semeraro et al., 1983. Immunology; 50: 529-35) on intact cells; 2) immunological assay (Imubind, Instrumentation Laboratory, Milan) on Triton X-100 cell extracts; 3) RT-PCR (Rossiello et al. Thromb Haemost 2000; 84:453-59).

The mark [3] stands for this setting: 10 μM, RAW264.7, LPS 1 μg/ml 16 h, negative = increase vs LPS.
Where [4] appears, read: mice, 14 days after ischemia, in chow pravastatin 40 mg/kg or nitroderivative 48 mg/kg.
Setting [5] is: 100 μM, RAW264.7, LPS 1 μg/ml 8 h.

Like-named read-outs stand apart in the source and are kept apart here. Marks after values point to notes of the source that are not given here.

In the case of `CC(C)n1c(/C=C/[C@@H](O)C[C@@H](O)CC(=O)OCCCCO[N+](=O)[O-])c(-c2ccc(F)cc2)c2ccccc21` (relative stereo) [Compound of EX. 3, [R*,S*-(E)]-7-[3-(4-fluorophenyl)-1-(1-methylethyl)-1H-indol-2-yl]-3,5-dihydroxy-6-heptanoic acid 4-(nitrooxy)butyl ester], the IC50 in experiment [1] worked out at 13.4 ± 3.5 µM. Also, the “COX2 (% reduction vs LPS)” value in the experiment with COX2 (setting [3]) was found to be 53.9 ± 6.1%. For the same compound, the “iNOS (% reduction vs LPS)” value in the experiment with iNOS (setting [3]) turned out to be 44.8 ± 11.9%.
Turning to `CC[C@H](C)C(=O)O[C@H]1C[C@H](O)C=C2C=C[C@H](C)[C@H](CCC(O)C[C@H](O)CC(=O)OCCCCO[N+](=O)[O-])[C@H]21` (relative stereo) [Compound of EX. 1, [1S-[1α(βS*,δS*),2α,6α,8β-(R*),8aα]]-1,2,6,7,8,8a-hexahydro-β,δ,6-trihydroxy-2-methyl-8-(2-methyl-1-oxobutoxy)-1-naphthaleneheptanoic acid 4-(nitrooxy)butyl ester], the IC50 in the experiment on human platelets (Platelet, human gel filtered platelets, read-out: Platelet aggregation (GFP) IC50) was determined as 101 ± 10 µM. Also, in the experiment on human platelets (human platelet rich plasma, read-out: Platelet aggregation (PRP) IC50), the IC50 is 74 ± 7 µM. In experiment [2] (12 mg/kg ip), the “Antithrombotic activity (%) 1-h before challenge” value is listed as 30* % and the “Antithrombotic activity (%) 3-h before challenge” value is reported as 40* %. In experiment [2] (24 mg/kg ip), the “Antithrombotic activity (%) 1-h before challenge” value was 40*+ % and the “Antithrombotic activity (%) 3-h before challenge” value is listed as 55*+ %. Moreover, the IC50 in experiment [1] came to 2.4 ± 0.6 µM. The “clinical outcome in mice with hindlimb ischemia” value in the experiment on murine hindlimb ischemia (14 days, necrotic or lost nails, auto-amputation events) is given as “ameliorates clinical outcome”. In the experiment with murine hindlimb ischemia (setting [4]), the “N capillaries/mm^2 in contralateral adductor muscle” value turned out to be 660 ± 40 N capillaries/mm^2 and the “N capillaries/mm^2 in ischemic adductor muscle” value is 1116 ± 53^§§**^++ N capillaries/mm^2. Also, in the experiment on COX2 (setting [5]), the “COX2 (% reduction vs LPS)” value stood at 74.9 ± 4.4%. The “Leukocyte adhesion (%) (thoracic aorta)” value in the experiment with leukocyte adhesion stood at 9.3 ± 3 %. In the experiment on iNOS (setting [5]), the “iNOS (% reduction vs LPS)” value came to 55.2 ± 11.8%. Besides, in the experiment on Tissue factor (TF), the “TF in LPS-stimulated MNC: Activity” value was found to be 16 ± 4.9 AU/10^6 cells and the “TF in LPS-stimulated MNC: Antigen” value was 0.65 ± 0.11 ng/mg protein.
Take `CC(C)n1c(/C=C/C(O)CC(O)CC(=O)O)c(-c2ccc(F)cc2)c2ccccc21` (stereo not shown) [Fluvastatin, fluvastatin, reference compound]: in experiment [1], the IC50 was > 30 µM. The “COX2 (% reduction vs LPS)” value with COX2 (setting [3]) is given as −2.8 ± 3.7%. The “iNOS (% reduction vs LPS)” value in the experiment with iNOS (setting [3]) was −14.8 ± 5.9%.
For `CC[C@H](C)C(=O)O[C@H]1C[C@H](O)C=C2C=C[C@H](C)[C@H](CC[C@@H](O)C[C@@H](O)CC(=O)O)[C@H]21` [Pravastatin, pravastatin, reference compound], in experiment [2] (10 mg/kg ip), the “Antithrombotic activity (%) 1-h before challenge” value is 15% and the “Antithrombotic activity (%) 3-h before challenge” value is 10%. Moreover, in experiment [2] (20 mg/kg ip), the “Antithrombotic activity (%) 1-h before challenge” value is given as 25% and the “Antithrombotic activity (%) 3-h before challenge” value is given as 20%. For the same compound, in experiment [1], the IC50 was > 30 µM. The “N capillaries/mm^2 in contralateral adductor muscle” value in the experiment with murine hindlimb ischemia (setting [4]) was 736 ± 40 N capillaries/mm^2. Moreover, the “COX2 (% reduction vs LPS)” value in the experiment with COX2 (setting [5]) is 26.9 ± 7.9%. Further, in the experiment with leukocyte adhesion, the “Leukocyte adhesion (%) (thoracic aorta)” value is given as 23.0 ± 6%. Also, the “iNOS (% reduction vs LPS)” value in the experiment with iNOS (setting [5]) worked out at 4.7 ± 3.6%. In the experiment with Tissue factor (TF), the “TF in LPS-stimulated MNC: Activity” value stood at 189 ± 37.6 AU/10^6 cells and the “TF in LPS-stimulated MNC: Antigen” value is on record as 4.4 ± 1.3 ng/mg protein.
In the case of `CC(C)c1c(C(=O)Nc2ccccc2)c(-c2ccccc2)c(-c2ccc(F)cc2)n1CC[C@@H](O)C[C@@H](O)CC(=O)O` [Atorvastatin, atorvastatin, reference compound], the “iNOS (% reduction vs LPS)” value with iNOS (setting [3]) was 20 ± 14%.
Regarding `CC(C)c1c(C(=O)Nc2ccccc2)c(-c2ccccc2)c(-c2ccc(F)cc2)n1CC[C@@H](O)C[C@@H](O)CC(=O)OCCCCO[N+](=O)[O-]` [Compound of EX. 7, (βR,δR)-2(4-fluorophenyl)-β,δ-dihydroxy-5-(1-methylethyl)-3-phenyl-4-[(phenylamino)carbon-yl]-1H-pyrrole-1-heptanoic acid 4-(nitrooxy)butyl ester], in the experiment with iNOS (setting [3]), the “iNOS (% reduction vs LPS)” value is reported as 45 ± 9%.
`CC(C)n1c(/C=C/[C@@H](O)C[C@@H](O)CC(=O)OCc2ccc(CO[N+](=O)[O-])cc2)c(-c2ccc(F)cc2)c2ccccc21` (relative stereo) [Compound of EX. 4, [R*,S*-(E)]-7-[3-(4-fluorophenyl)-1-(1-methylethyl)-1H-indol-2-yl]-3,5-dihydroxy-6-heptanoic acid 4-(nitrooxymethyl)benzyl ester]: the IC50 in experiment [1] turned out to be 8.7 ± 3.3 µM. The “COX2 (% reduction vs LPS)” value with COX2 (setting [3]) worked out at 19.4 ± 6.5%. Moreover, the “iNOS (% reduction vs LPS)” value in the experiment on iNOS (setting [3]) is 22.4 ± 9.6%.

(Values after patent publication US7462716B2, “Statin derivatives” (Nicox S.A., priority 2003, dated 2008).)
